From the NIST ThermoML archive (doi:10.1016/j.jct.2015.05.024)

Assay: xn = mol fraction of the nth substance listed
Details: 100 kPa, Liquid; for mass density: Vibrating tube method; for speed of sound: Frequency=5 MHz, Pulse-echo method

OCCOCCOCCO [triethylene glycol] + O
Details | mass density [kg/m3] | speed of sound [m/s]
303.15 K, x1 = 0.04979 | 1041.3 | –
303.15 K, x1 = 0.06996 | 1054 | –
303.15 K, x1 = 0.09424 | 1066.08 | –
303.15 K, x1 = 0.1481 | 1084.03 | –
303.15 K, x1 = 0.2006 | 1094.18 | –
303.15 K, x1 = 0.2502 | 1100.12 | –
303.15 K, x1 = 0.2988 | 1103.95 | –
303.15 K, x1 = 0.3492 | 1106.7 | –
303.15 K, x1 = 0.3925 | 1108.43 | –
303.15 K, x1 = 0.4502 | 1110.16 | –
303.15 K, x1 = 0.4877 | 1111.03 | –
303.15 K, x1 = 0.5004 | 1111.29 | –
303.15 K, x1 = 0.5739 | 1112.54 | –
303.15 K, x1 = 0.58 | 1112.63 | –
303.15 K, x1 = 0.6465 | 1113.45 | –
303.15 K, x1 = 0.651 | 1113.5 | –
303.15 K, x1 = 0.7008 | 1113.98 | –
303.15 K, x1 = 0.7471 | 1114.36 | –
303.15 K, x1 = 0.7677 | 1114.51 | –
303.15 K, x1 = 0.82 | 1114.86 | –
303.15 K, x1 = 0.8623 | 1115.11 | –
303.15 K, x1 = 0.8792 | 1115.2 | –
303.15 K, x1 = 0.8975 | 1115.3 | –
303.15 K, x1 = 0.9203 | 1115.41 | –
303.15 K, x1 = 0.9514 | 1115.57 | –
303.15 K, x1 = 0.9692 | 1115.66 | –
303.15 K, x1 = 1 | 1115.81 | –
308.15 K, x1 = 0.000704 | – | 1522.8
308.15 K, x1 = 0.002176 | – | 1528.1
308.15 K, x1 = 0.005721 | – | 1540.6
308.15 K, x1 = 0.01035 | – | 1556
308.15 K, x1 = 0.0107 | 1005.7 | –
308.15 K, x1 = 0.01513 | – | 1570.7
308.15 K, x1 = 0.02047 | 1015.27 | –
308.15 K, x1 = 0.02389 | – | 1595
308.15 K, x1 = 0.03177 | – | 1614.1
308.15 K, x1 = 0.03972 | 1031.49 | –
308.15 K, x1 = 0.0428 | – | 1637
308.15 K, x1 = 0.04979 | 1038.74 | –
308.15 K, x1 = 0.05056 | – | 1650.6
308.15 K, x1 = 0.05793 | – | 1661.8
308.15 K, x1 = 0.06447 | – | 1670.6
308.15 K, x1 = 0.06996 | 1051.15 | –
308.15 K, x1 = 0.07343 | – | 1680.8
308.15 K, x1 = 0.08342 | – | 1690
308.15 K, x1 = 0.09076 | – | 1695.5
308.15 K, x1 = 0.09424 | 1062.94 | –
308.15 K, x1 = 0.1028 | – | 1702.6
308.15 K, x1 = 0.1137 | – | 1707.1
308.15 K, x1 = 0.1189 | – | 1708.7
308.15 K, x1 = 0.1229 | – | 1709.7
308.15 K, x1 = 0.1231 | – | 1709.7
308.15 K, x1 = 0.1269 | – | 1710.5
308.15 K, x1 = 0.1308 | – | 1711.1
308.15 K, x1 = 0.1403 | – | 1712.1
308.15 K, x1 = 0.1427 | – | 1712.2
308.15 K, x1 = 0.1481 | 1080.5 | 1712.3
308.15 K, x1 = 0.1594 | – | 1711.9
308.15 K, x1 = 0.1659 | – | 1711.3
308.15 K, x1 = 0.1738 | – | 1710.3
308.15 K, x1 = 0.1858 | – | 1708.3
308.15 K, x1 = 0.1969 | – | 1706
308.15 K, x1 = 0.2006 | 1090.47 | –
308.15 K, x1 = 0.2172 | – | 1701
308.15 K, x1 = 0.2467 | – | 1692.8
308.15 K, x1 = 0.2502 | 1096.32 | –
308.15 K, x1 = 0.2825 | – | 1682.6
308.15 K, x1 = 0.2988 | 1100.12 | –
308.15 K, x1 = 0.3259 | – | 1670.8
308.15 K, x1 = 0.3492 | 1102.85 | –
308.15 K, x1 = 0.3691 | – | 1660.3
308.15 K, x1 = 0.3925 | 1104.57 | –
308.15 K, x1 = 0.4352 | – | 1646.2
308.15 K, x1 = 0.4502 | 1106.3 | –
308.15 K, x1 = 0.4877 | 1107.17 | –
308.15 K, x1 = 0.5004 | 1107.43 | –
308.15 K, x1 = 0.5067 | – | 1632.7
308.15 K, x1 = 0.5739 | 1108.68 | –
308.15 K, x1 = 0.58 | 1108.77 | –
308.15 K, x1 = 0.6111 | – | 1615.9
308.15 K, x1 = 0.6465 | 1109.59 | –
308.15 K, x1 = 0.651 | 1109.63 | –
308.15 K, x1 = 0.7008 | 1110.12 | –
308.15 K, x1 = 0.7471 | 1110.49 | –
308.15 K, x1 = 0.7677 | 1110.64 | –
308.15 K, x1 = 0.7783 | – | 1598.5
308.15 K, x1 = 0.82 | 1110.99 | –
308.15 K, x1 = 0.8623 | 1111.23 | –
308.15 K, x1 = 0.8792 | 1111.32 | –
308.15 K, x1 = 0.8912 | – | 1591.9
308.15 K, x1 = 0.8975 | 1111.42 | –
308.15 K, x1 = 0.9203 | 1111.54 | –
308.15 K, x1 = 0.9514 | 1111.69 | –
308.15 K, x1 = 0.9608 | – | 1587.5
308.15 K, x1 = 0.9692 | 1111.78 | –
308.15 K, x1 = 1 | 1111.92 | 1584.6
313.15 K, x1 = 0.00059 | – | 1530.8
313.15 K, x1 = 0.002696 | – | 1537.9
313.15 K, x1 = 0.006871 | – | 1551.2
313.15 K, x1 = 0.01006 | – | 1560.8
313.15 K, x1 = 0.0107 | 1003.69 | –
313.15 K, x1 = 0.01494 | – | 1574.7
313.15 K, x1 = 0.02047 | 1013.09 | –
313.15 K, x1 = 0.02274 | – | 1594.6
313.15 K, x1 = 0.02979 | – | 1610.7
313.15 K, x1 = 0.03584 | – | 1623
313.15 K, x1 = 0.03972 | 1028.97 | –
313.15 K, x1 = 0.04219 | – | 1634.6
313.15 K, x1 = 0.04979 | 1036.07 | –
313.15 K, x1 = 0.05045 | – | 1647.8
313.15 K, x1 = 0.05689 | – | 1656.8
313.15 K, x1 = 0.06687 | – | 1668.7
313.15 K, x1 = 0.06996 | 1048.19 | –
313.15 K, x1 = 0.07692 | – | 1678.3
313.15 K, x1 = 0.08288 | – | 1683
313.15 K, x1 = 0.09135 | – | 1688.6
313.15 K, x1 = 0.09262 | – | 1689.3
313.15 K, x1 = 0.09424 | 1059.72 | –
313.15 K, x1 = 0.1004 | – | 1693.3
313.15 K, x1 = 0.1079 | – | 1696.2
313.15 K, x1 = 0.116 | – | 1698.7
313.15 K, x1 = 0.1201 | – | 1699.6
313.15 K, x1 = 0.1232 | – | 1700.2
313.15 K, x1 = 0.1303 | – | 1701.1
313.15 K, x1 = 0.1343 | – | 1701.5
313.15 K, x1 = 0.1377 | – | 1701.6
313.15 K, x1 = 0.1423 | – | 1701.7
313.15 K, x1 = 0.1481 | 1076.91 | –
313.15 K, x1 = 0.1573 | – | 1701
313.15 K, x1 = 0.1723 | – | 1699
313.15 K, x1 = 0.1866 | – | 1696.2
313.15 K, x1 = 0.2006 | 1086.71 | –
313.15 K, x1 = 0.2037 | – | 1692.2
313.15 K, x1 = 0.2426 | – | 1681.2
313.15 K, x1 = 0.2502 | 1092.5 | –
313.15 K, x1 = 0.2794 | – | 1670.3
313.15 K, x1 = 0.2988 | 1096.26 | –
313.15 K, x1 = 0.3209 | – | 1658.6
313.15 K, x1 = 0.3492 | 1098.98 | –
313.15 K, x1 = 0.3925 | 1100.7 | –
313.15 K, x1 = 0.403 | – | 1638.8
313.15 K, x1 = 0.4502 | 1102.42 | –
313.15 K, x1 = 0.4658 | – | 1626
313.15 K, x1 = 0.4877 | 1103.29 | –
313.15 K, x1 = 0.5004 | 1103.55 | –
313.15 K, x1 = 0.5676 | – | 1608
313.15 K, x1 = 0.5739 | 1104.8 | –
313.15 K, x1 = 0.58 | 1104.89 | –
313.15 K, x1 = 0.6465 | 1105.71 | –
313.15 K, x1 = 0.651 | 1105.76 | –
313.15 K, x1 = 0.6969 | – | 1590.8
313.15 K, x1 = 0.7008 | 1106.24 | –
313.15 K, x1 = 0.7471 | 1106.61 | –
313.15 K, x1 = 0.7677 | 1106.76 | –
313.15 K, x1 = 0.82 | 1107.11 | –
313.15 K, x1 = 0.8623 | 1107.35 | –
313.15 K, x1 = 0.8694 | – | 1577.9
313.15 K, x1 = 0.8792 | 1107.44 | –
313.15 K, x1 = 0.9455 | – | 1572.9
313.15 K, x1 = 1 | – | 1569.1
